The structures appear in SMILES notation. Read-outs that look alike come from different tables or passages of the source.

For one data set, the system named is IMR90 cells. The data set is described as follows: DAPI staining assay of surviving cells in replicative senescence model. The note with it: DAPI signal, 0.5 μM, 48 h, FIG. 2B. On the procedure:
Following treatment, the cells were seeded in 96mw. The adherent cells were then fixed with 70% ethanol, incubated for 30 min with a 3 μM DAPI solution; the fluorimetric signal was measured using a multiplate reader (Victor Nivo-Perkin Elmer) set to 350/460 nm (Ligasová A, Koberna K. Quantification of fixed adherent cells using a strong enhancer of the fluorescence of DNA dyes. Sci Rep. 2019 Jun. 18; 9(1):8701. doi: 10.1038/s41598-019-45217-9. PMID: 31213648; PMCID: PMC6581942.).
To confirm data obtained by traditional cell counting by a single operator, a quantification method based on […] was also implemented, exploiting the ability of the DAPI to mark cell nuclei. The cells that survived the action of senolytics were fixed and incubated with the fluorescent indicator. The specific signal was measured using the microplate multimode reader, Victor NIVO (PerkinElmer Tech. GmbH, Germany).

For data set [1] the following is noted: rats; cited from earlier work.
For data set [2] the following is noted: dogs; cited from earlier work.
The subject of data set [3] is primary human fetal lung cells IMR90. It counts as cell-based. The text has this:
Cell culture and replicative senescence. Fetal pulmonary fibroblasts, IMR90, were provided by the European Collection of Authenticated Cell Culture (ECACC) and grown in a complete medium consisting of Minimum Essential Medium (MEM), 10% Fetal Bovine Serum (FBS), 1% penicillin-streptomycin (antibiotic), 1% L-glutamine. Cells with passages from P15 to P21 were used; cells were considered incrementally senescent from passage P19 to passage P21. […] The cells were fixed in paraformaldehyde 2% and incubated with the substrate, X-gal, in a solution at pH 6, at 37° C., overnight (16 h).
The images were acquired using an optical microscope (Leica) with 5× magnification. The images were analyzed using the ImageJ software, quantifying the colorimetric signal emitted by each cell. The mean signal intensity was then normalized for the total number of cells. Survival curves of the compounds. […] The cells were then counted manually, in triplicate, using disposable burker chambers.
13 compounds including K5, with different structures, were assayed using an in vitro senescence model, that was developed utilizing serial passages of primary human fetal lung cells IMR90. […] Senescence was detected using the “Senescence β-Galactosidase Staining Kit” (#9860S, Cell Signaling Technology, Inc., MA, USA). […]

The target of a further data set is T1, recombinant HSP90α (Homo sapiens, UniProt P07900).
T1 construct: purchased BPS Bioscience 50293
The data set is described as follows: HSP90 inhibition activity assay, FITC-geldanamycin competitive binding fluorescence polarization. The note with it: 1 pM-10 μM, 2 h, FITC-labeled geldanamycin. On the procedure: HSP90 inhibition activity assay. […] Briefly, the compounds were diluted at different concentrations between 1 pM to 10 μM and incubated for 2 h with the enzyme and substrate at RT while stirring.
(Polarisation of emitted light reports the rotation of a fluorescent probe.)

The nature of data set [4]: Crossing of the blood-brain barrier after administration. The note with it: in vivo.

`CC(C)c1cc(-c2n[nH]c(=O)n2-c2ccc3c(ccn3C)c2)c(O)cc1O` [Ganetespib]: the “cytotoxic effects in the cellular model IMR90” value in the data set on IMR90 cells is “cytotoxic effects already at low concentrations and also in early passages”.
Turning to `CO[C@H]1/C=C\C=C(/C)C(=O)NC2=CC(=O)C(NCCN(C)C)=C(C[C@@H](C)C[C@H](OC)[C@H](O)[C@@H](C)/C=C(\C)[C@@H]1OC(N)=O)C2=O` [Compound 17-DMAG, 17-dimethylaminoethylamino-17-demethoxygeldanamycin], the “cytotoxic effects in the cellular model IMR90” value in the data set with IMR90 cells was “cytotoxic effects already at low concentrations and also in early passages”. The “maximum tolerated dose (MTD)” value is reported as 12 mg/m^2 in data set [1] and 8 mg/m^2 in data set [2].
Turning to `Cc1ccccc1-n1c(=O)n(Cc2ccccc2)c(=O)c2[nH]cnc21` [Compound Ia, 1-benzyl-3-(2-methylphenyl)-2,3,6,7-tetrahydro-1H-purine-2,6-dione], in data set [3] (IMR90 P19-P21, first 48 hours of exposure, FIG. 2A (1 μM)), the “reduction of the senescent population” value is “about 50%”. The “senolytic action on cells at passages between P19 and P21” value in data set [3] (IMR90 P19-P21 vs P15-P17, 1 μM, 48 h) was “act selectively and significantly”. In addition, on recombinant HSP90α, the concentration for half-maximal inhibition (IC50) came out at 731 nM. The “crossing of the blood-brain barrier (BBB)” value in data set [4] was “enables the crossing of the blood-brain barrier”.

As usually defined, the IC50 is the concentration that inhibits the measured activity by half.

These data come from patent publication US20240425508A1, “COMPOUNDS USEFUL IN PREVENTION AND/OR TREATMENT OF SENESCENT CELL-RELATED PATHOLOGIES AND DISEASES” (ISTITUTI CLINICI SCIENTIFICI MAUGERI SPA SB, priority 2022, published 2024).
